Laboratory results as given in patent US20240245627A1, “ALKENE QUINONE COMPOUNDS AND METHODS OF USE” (University of Pittsburgh - Of the Commonwealth System of …, priority 2021, published 2024).

Assays:
Recombinant CYB5R3 = target: T1, Recombinant CYB5R3 (Homo sapiens, UniProt P00387); experiment: Reduction of oxidized myoglobin by recombinant CYB5R3 (NADH-initiated, absorbance); type: biochemical
T1 sequence (P00387 1-301): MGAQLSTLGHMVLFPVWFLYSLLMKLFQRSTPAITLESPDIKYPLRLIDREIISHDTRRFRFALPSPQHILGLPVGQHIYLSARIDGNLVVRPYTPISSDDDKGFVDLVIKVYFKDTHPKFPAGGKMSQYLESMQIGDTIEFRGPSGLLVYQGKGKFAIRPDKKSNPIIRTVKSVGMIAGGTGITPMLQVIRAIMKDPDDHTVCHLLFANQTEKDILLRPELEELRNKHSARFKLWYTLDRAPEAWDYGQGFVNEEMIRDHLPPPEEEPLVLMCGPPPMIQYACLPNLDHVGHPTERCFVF
Procedure: FIGS. 2a-2c. Reduction of oxidized myoglobin by CYB5R3 is not affected by (FIG. 2a) oleic acid or (FIG. 2b) Q-OA (CoQ-linked oleic acid). Q-NA enhanced (FIG. 2c) CYB5R3 reduction of myoglobin. Error bars are S.E.M. and n=3.
Recombinant CYB5R3 was incubated with nitro-oleic acid, CoQ-linked oleic acid or Q-NA along with oxidized myoglobin. NADH stimulation initiated the reaction and absorbance changes were monitored which is indicative of myoglobin reduction. Q-NA increased myoglobin heme reduction whereas the other compounds had no effect (FIG. 2). Q-NA alone had no effect on myoglobin reduction.

[1] = test system: RPS/RPL gene expression in human aortic endothelial cells; experiment: RPS/RPL gene transcription in human aortic endothelial cells (RNA sequencing); type: cell-based; details: 5 μM, 6 hours
Procedure: FIG. 9. NO2—OA and Q-NA stimulate divergent effects of RSP/RPL gene transcription in aortic endothelial cells.
Human aortic endothelial cells were stimulated with vehicle (dimethylsulfoxide, (DMSO)), 5 μM of NO2—OA, or 5 μM Q-NA. Following 6 hours of stimulation, cells were lysed and RNA sequencing was performed.

Compound | myoglobin heme reduction by CYB5R3 (Recombinant CYB5R3) | RPS/RPL gene expression compared to Q-NA treatment [1]
9-, 10-nitro octadece-9-noic acid [NO2—OA] | no effect | opposing effects
CCCCCCCC/C=C\CCCCCCCC(=O)O [oleic acid, octadece-9-noic acid] | not affected | –
